Source: patent US20030144225A1, “Antisense modulation of macrophage inflammatory protein 3-alpha expression” (priority 2001, published 2003)
Strand notation (5' to 3'): a small letter for the sugar, then the base; units joined by * are phosphorothioate-linked, units joined directly phosphodiester-linked; [ ] holds rarer units or linkages, { } end groups; capitals alone tell only the bases. e = 2'-O-(2-methoxyethyl) (MOE); [5mC] = 5-methylcytosine; d = 2'-deoxy (DNA)

Key:
[1] = tested on: human macrophage inflammatory protein 3-alpha mRNA; assay: Dose-response inhibition of cytokine-induced macrophage inflammatory protein 3-alpha mRNA expression in NHEK cells; format: cell-based; details: 24 Hr after oligonucleotide treatment, percent inhibition of cytokine-induced control, averages from two experiments; for % Inhibition of cytokine induced macrophage inflammatory protein 3-alpha mRNA expression, 50 nM: 50 nM oligonucleotide; for % Inhibition of cytokine induced macrophage inflammatory protein 3-alpha mRNA expression, 100 nM: 100 nM oligonucleotide; for % Inhibition of cytokine induced macrophage inflammatory protein 3-alpha mRNA expression, 200 nM: 200 nM oligonucleotide
[2] = tested on: human macrophage inflammatory protein 3-alpha mRNA; assay: Antisense inhibition of human macrophage inflammatory protein 3-alpha mRNA levels, quantitative real-time PCR (Table 1 screen); format: cell-based; details: averages from two experiments, oligonucleotide concentration not given

Row | Substance | % Inhibition of cytokine induced macrophage inflammatory protein 3-alpha mRNA expression, 50 nM [1] | % Inhibition of cytokine induced macrophage inflammatory protein 3-alpha mRNA expression, 100 nM [1] | % Inhibition of cytokine induced macrophage inflammatory protein 3-alpha mRNA expression, 200 nM [1] | % INHIB (inhibition of human macrophage inflammatory protein 3-alpha mRNA levels) [2]
1 | 150680 (antisense e[5mC]*eT*e[5mC]*eA*eA*dA*dG*dA*dA*d[5mC]*dA*dG*dA*dT*d[5mC]*eT*eG*e[5mC]*eT*e[5mC]) [compound 150680] | 13% | 47% | 68% | 41%
2 | 150687 (antisense eG*eT*e[5mC]*e[5mC]*eA*dA*dT*dT*d[5mC]*d[5mC]*dA*dT*dT*d[5mC]*d[5mC]*eA*eG*eA*eA*eA) [compound 150687] | 19% | 51% | 65% | 34%
3 | 150688 (antisense e[5mC]*eT*eT*eG*eG*dG*d[5mC]*dT*dA*dT*dG*dT*d[5mC]*d[5mC]*dA*eA*eT*eT*e[5mC]*e[5mC]) [compound 150688] | 43% | 69% | 80% | 46%
4 | 150689 (antisense e[5mC]*eA*eA*eG*eG*dT*dT*d[5mC]*dT*dT*dT*d[5mC]*dT*dG*dT*eT*e[5mC]*eT*eT*eG) [compound 150689] | 16% | 60% | 77% | 41%
5 | 150692 (antisense eG*e[5mC]*eA*eA*eT*dA*dT*dG*dA*dA*dT*d[5mC]*dA*dA*d[5mC]*eT*eT*e[5mC]*eA*eT) [compound 150692] | 34% | 59% | 73% | 39%
6 | 150693 (antisense eA*e[5mC]*eT*eA*eT*dG*dA*dT*dG*d[5mC]*dA*dA*dT*dA*dT*eG*eA*eA*eT*e[5mC]) [compound 150693] | 25% | 58% | 63% | 29%
